1 compound from PMC12540872 (Nature Communications, 2025) can be followed below.

The target in the assay is MMOH (hydroxylase of soluble methane monooxygenase, sMMO). Description: isothermal titration calorimetry. The note with it: enthalpically driven; surface site near K323 proposed. The format is binding, Methylosinus trichosporium. (Isothermal titration calorimetry measures the heat released or taken up as one component is titrated into another.)

As usually defined, the Kd is the free concentration of one partner at which half of the binding sites on the other are occupied at equilibrium, for simple one-to-one binding. Higher therefore signals lower affinity. Turning to `O=C1OC2(c3cc(I)c(O)c(I)c3Oc3c2cc(I)c(O)c3I)c2c(Cl)c(Cl)c(Cl)c(Cl)c21` [RB, rose bengal], binding was characterised by a dissociation constant (Kd) of 9.23 ± 1.3 µM.
